One data set relates to U2OS cells. As to the kind of experiment: Cellular oxygen consumption rate (uncoupled respiration), U2OS cells. The format is cell-based, human. As to conditions: 50 μM, after oligomycin 1 μM. How it is done: C2C12, U2O5, and 293A cells were cultured in DMEM with 10% FBS and pen/strep. Primary inguinal (iWAT) and brown (BAT) adipocytes were obtained as follows. The stromal-vascular fraction of inguinal (iWAT) pad from 4-12 week old male mice was dissected, minced, and digested for 45 min. at 37° C. in PBS containing 10 mM CaCl2, 2.4 U/ml dispase II (Roche), and 1.5 U/ml collagenase D (Roche). The stromal-vascular fraction of brown fat (BAT) pads from newborn (P1-P14) pups was dissected, minced, and digested for 45 min at 37° C. in PBS containing 1.3 mM CaCl2, 120 mM NaCl, 5 mM KCl, 5 mM glucose, 100 mM HEPES, 4% BSA, and 1.5 mg/ml collagenase B (Roche). Digested tissue was diluted with adipocyte culture media (DMEM/F-12, GlutaMAX™ supplement, Life Technologies, with 10% FBS and pen/strep) and centrifuged (600×g for 10 min.). The pellet was resuspended in 10 ml adipocyte culture media, strained through a 40 μm filter, and plated. Differentiation was induced by application of an adipogenic cocktail containing 5 μg/ml insulin (Sigma), 5 μM dexamethasone (Sigma), 250 μM isobutylmethylxanthine (Sigma), and 1 μM rosiglitazone (Cayman) for 2 days. Two days after induction, cells were maintained in adipocyte culture media containing 5 μg/ml insulin and 1 μM rosiglitazone.
Cellular oxygen consumption rates were determined using an XF24 Extracellular Flux Analyzer (Seahorse Biosciences). Oligomycin was purchased from EMD Millipore, and FCCP and rotenone were purchased from Sigma. C2C12 or U2OS cells were seeded at 30,000 or 50,000 cells/well, respectively in an XF24 cell culture microplate (V7-PS, Seahorse Bioscience) and analyzed the following day. Primary iWAT or BAT adipocytes were seeded at 15,000 cells/well, differentiation was induced the following day as described, and the cells were analyzed on day 5. On the day of analysis, the cells were washed once with Seahorse respiration buffer (8.3 g/1 DMEM, 1.8 g/l NaCl, 1 mM pyruvate, 20 mM glucose, pen/strep), placed in 0.5 ml Seahorse respiration buffer, and incubated in a CO2-free incubator for 1 hr. Port injection solutions were prepared as follows (final concentrations in assay in parentheses): 10 μM oligomycin (1 μM final), […] amino acid (50 μM final), 2 μM FCCP (0.2 μM final), and 30 μM rotenone (3 μM final). The Seahorse program was run as follows: basal measurement, 3 cycles; inject port A (oligomycin), 3 cycles; inject port B (compounds), 8 cycles; inject port C (FCCP), 3 cycles; inject port D (rotenone), 3 cycles. Each cycle consisted of mix 4 min, wait 0 min, and measure 2 min. For data expressed as a percentage of oligomycin-treated basal, the respiration at cycle 6 was normalized to 100%, and the maximum respiration at any time point between cycles 7 and 15 inclusive was used.

Data set [1] in a line: Blood levels after a single i.p. dose. The format is in vivo. To be noted: C57BL/6, mouse, ip, single 30 mg/kg i.p. dose, mean±SEM, n=3. The procedure: Animal experiments were performed according to procedures approved by the Beth Israel Deaconess Medical Center IACUC. Mice were maintained in 12 h light-dark cycles at 22° C. and fed a standard irradiated rodent chow diet. All experiments on wild-type mice were performed with male C57BL/6 mice purchased from Jackson Laboratories, except for the AAV experiments, which were performed with male C57BL/6 mice from Charles River. UCP1-KO (stock #017476) and 16-20 week DIO mice (stock #380050) were obtained from Jackson Laboratories. For AAV injection experiments, mice were gently warmed using a 250 W clear infrared heat lamp, immobilized, and injected via tail vein with 10^10 virus/mouse (diluted in saline) in a total volume of 100 μl/mouse. Where indicated, mice were placed on high-fat diet (60% fat, Research Diets). For cold exposure experiments, mice were group housed and placed at 4° C. for the indicated times. For the preparation of C18:1-Phe for in vivo injections, compounds were dissolved in 18:1:1 v/v/v saline:Kolliphor® EL (Sigma Aldrich):DMSO and sonicated until homogeneous. Mice were administered compounds at 5 μl/g body weight at the indicated doses. For all injection experiments, mice were mock injected with saline daily for 3 days prior to the start of the experiments. […]

A further data set has as its system BAT mitochondria. As to the kind of experiment: Respiration of isolated crude BAT mitochondria. The format is biochemical, mouse. To be noted: 10-100 μM; 10 mM pyruvate and 5 mM malate as substrates. How it is done: BAT pads from ten 6-12 week old male mice were harvested and minced on ice in isolation buffer (250 mM sucrose, 5 mM HEPES, and 1 mM EGTA) supplemented with 2% fatty acid-free BSA (Sigma). The tissue was then homogenized in a Teflon homogenizer and centrifuged (8,500×g, 10 min, 4° C.). The supernatant was discarded, the pellet was re-suspended in 20 ml isolation buffer supplemented with 1% fatty acid-free BSA, and centrifuged (700×g, 10 min, 4° C.). The supernatant was centrifuged one final time (8,500×g, 10 min, 4° C.). The pellet was re-suspended in isolation buffer supplemented with 1% fatty acid-free BSA (200 μl) to yield crude BAT mitochondria at 50-80 mg/ml. For respiration measurements, BAT mitochondria were diluted to in mitochondria respiration buffer (5 mM KCl, 4 mM KH2PO4, 5 mM HEPES, 1 mM EGTA, 1% fatty acid free BSA, 10 mM pyruvate, 5 mM malate, and 1 mM GDP) and plated at 15 μg/well (50 μl total volume) in an XF24 cell culture microplate. The plate was centrifuged (1000×g, 20 min, 4° C.), additional pre-warmed mitochondrial respiration buffer was added (450 μl), and respiration was measured on a XF24 Extracellular Flux Analyzer. The Seahorse program was run as follows: basal measurement, 2 cycles; inject port A (compounds), 1 cycle, inject port B (FCCP), 1 cycle, inject port C (rotenone), 1 cycle. Each cycle consisted of mix 0.5 min, wait 0 min, measure 2 min. […]

The subject of data set [2] is Diet induced obese (DIO) mice. As to the kind of experiment: Chronic daily i.p. administration of N-acyl amino acids to DIO mice (body weight, food intake, body composition, GTT). The format is in vivo, mouse. To be noted: chronic treatment, C18:1-Phe 30 or 50 mg/kg/day, C20:4-Gly 15 mg/kg/day, i.p. How it is done:
Animal experiments were performed according to procedures approved by the Beth Israel Deaconess Medical Center IACUC. Mice were maintained in 12 h light-dark cycles at 22° C. and fed a standard irradiated rodent chow diet. All experiments on wild-type mice were performed with male C57BL/6 mice purchased from Jackson Laboratories, except for the AAV experiments, which were performed with male C57BL/6 mice from Charles River. UCP1-KO (stock #017476) and 16-20 week DIO mice (stock #380050) were obtained from Jackson Laboratories. For AAV injection experiments, mice were gently warmed using a 250 W clear infrared heat lamp, immobilized, and injected via tail vein with 10^10 virus/mouse (diluted in saline) in a total volume of 100 μl/mouse. Where indicated, mice were placed on high-fat diet (60% fat, Research Diets). For cold exposure experiments, mice were group housed and placed at 4° C. for the indicated times. For the preparation of C18:1-Phe for in vivo injections, compounds were dissolved in 18:1:1 v/v/v saline:Kolliphor® EL (Sigma Aldrich):DMSO and sonicated until homogeneous. Mice were administered compounds at 5 μl/g body weight at the indicated doses. For all injection experiments, mice were mock injected with saline daily for 3 days prior to the start of the experiments. For glucose tolerance tests (GTTs), mice received their final dose of compound the day prior to the assay and were then fasted overnight. Glucose was administered at 1.5 g/kg.
Energy expenditure, O2 consumption, CO2 production, respiratory exchange ratio, total locomotor activity, and food intake measurements were made with a 16-cage Columbus Instruments Oxymax Comprehensive Lab Animal Monitoring System (CLAMS) at ambient room temperature (21-23° C.). Mice were acclimated for one day in metabolic cages prior to data collection. Whole-body composition was assessed with an EchoMRI™ 3-in-1 on conscious mice.

Data set [3] concerns primary inguinal fat cells, primary BAT cells, C2C12 cells, and U2OS cells. As to the kind of experiment: Uncoupled respiration cellular assays (variety of cell types). The format is cell-based. As to conditions: N-acyl amino acids at 10-100 uM.

As to `CCCCCCCC/C=C\CCCCCCCC(=O)N[C@@H](Cc1ccccc1)C(=O)O` [C18:1-Phe, Oleoyl-L-phenylalanine], in the data set with U2OS cells, the “uncoupling activity (uncoupled respiration)” value is on record as “possessed uncoupling activity”. This molecule showed a concentration at 2 h in data set [1] (2 h post-injection) of 3000 ± 300 nM. The same molecule came in with a concentration at 6 h in data set [1] (6 h post-injection) of 400 ± 100 nM. In addition, in the data set with BAT mitochondria, the “respiration of isolated mitochondria” value is “increased respiration in a dose-dependent manner”. Also, the food intake result in data set [2] is reported as “reduced food intake”. In data set [3], the “uncoupled respiration in cells” value was “increased uncoupled respiration”.

For the origin of these results see patent US12194080B2, “Methods for identification, assessment, prevention, and treatment of metabolic disorders using PM20D1 and N-lipidated amino acids” (Dana-Farber Cancer Institute, Inc., priority 2015, dated 2025).
